Results on eleven compounds are retold here after patent US9434727B2, “Substituted 4-phenylpiperidines, their preparation and use” (THE TRUSTEES OF COLUMBIA UNIVERSITY IN THE CITY OF NEW YORK, priority 2014, dated 2016).

One assay deals with RBP4 (Homo sapiens (Human), UniProt P02753). The assay is described as follows: Scintillation proximity (SPA) RBP4 binding assay. The settings on record: 10 nM 3H-Retinol, 50 nM biotinylated RBP4. The protocol: Scintillation Proximity RBP4 Binding Assay
Untagged human RBP4 purified from urine of tubular proteinuria patients was purchased from Fitzgerald Industries International. It was biotinylated using the EZ-Link Sulfo-NHS-LC-Biotinylation kit from Pierce following the manufacturer's recommendations. Binding experiments were performed in 96-well plates (OptiPlate, PerkinElmer) in a final assay volume of 100 μl per well in SPA buffer (IX PBS, pH 7.4, 1 mM EDTA, 0.1% BSA, 0.5% CHAPS). The reaction mix contained 10 nM ^3H-Retinol (48.7 Ci/mmol; PerkinElmer), 0.3 mg/well Streptavidin-PVT beads, 50 nM biotinylated RBP4 and a test compound. Nonspecific binding was determined in the presence of 20 μM of unlabeled retinol. The reaction mix was assembled in the dark under dim red light. The plates were sealed with clear tape (TopSeal-A: 96-well microplate, PerkinElmer), wrapped in the aluminum foil, and allowed to equilibrate 6 hours at room temperature followed by overnight incubation at +4° C. Radiocounts were measured using a TopCount NXT counter (Packard Instrument Company).

Another assay has as its target RBP4-TTR interaction (Homo sapiens (Human), UniProt P02753). In words: TR-FRET (HTRF) assay for retinol-induced RBP4-TTR interaction. The settings on record: in the presence of 1 μM retinol; read-out: HTRF assay for antagonists of RBP4-TTR interaction: IC50. It is filed as biochemical. From the text:
TR-FRET assay for retinol-induced RBP4-TTR interaction Binding of a desired RBP4 antagonist displaces retinol and induces hindrance for RBP4-TTR interaction resulting in the decreased FRET signal (FIG. 7). Bacterially expressed MBP-RBP4 and untagged TTR were used in this assay. […] Following cell lysis, recombinant RBP4 was purified from the soluble fraction using the ACTA FPLC system (GE Healthcare) equipped with the 5-ml the MBP Trap HP column. Human untagged TTR was purchased from Calbiochem. Untagged TTR was labeled directly with Eu^3+ Cryptate-NHS using the HTRF Cryptate Labeling kit from CisBio following the manufacturer's recommendations. HTRF assay was performed in white low volume 384 well plates (Greiner-Bio) in a final assay volume of 16 μl per well. The reaction buffer contained 10 mM Tris-HCl pH 7.5, 1 mM DTT, 0.05% NP-40, 0.05% Prionex, 6% glycerol, and 400 mM KF. […] Titration of test compounds in this assay was conducted in the presence of 1 μM retinol. All reactions were assembled in the dark under dim red light and incubated overnight at +4° C. wrapped in aluminum foil. TR-FRET signal was measured in the SpectraMax M5e Multimode Plate Reader (Molecular Device). […] The TR-FRET signal was expressed as the ratio of fluorescence intensity: Flu665/Flu620×10,000.

Turning to `CC(=O)N1CCc2c(C(=O)N3CCC(c4cccc(F)c4C(F)(F)F)CC3)n[nH]c2C1` [Compound 63, 1-(3-(4-(3-Fluoro-2-(trifluoromethyl)phenyl)piperidine-1-carbonyl)-4,5-dihydro-1H-pyrazolo[3,4-c]pyridin-6(7H)-yl)ethanone], the values for the half-maximal inhibitory concentration (IC50) at RBP4 and at RBP4-TTR interaction were 4.46 nM and 16 nM, respectively.

Consider `CS(=O)(=O)N1CCc2[nH]nc(C(=O)N3CCC(c4cccc(F)c4C(F)(F)F)CC3)c2C1` [Compound 64, (4-(3-Fluoro-2-(trifluoromethyl)phenyl)piperidin-1-yl)(5-(methylsulfonyl)-4,5,6,7-tetrahydro-1H-pyrazolo[4,3-c]pyridin-3-yl)methanone], for which the half-inhibitory concentration (IC50) on RBP4 stood at 5.36 nM; at RBP4-TTR interaction, 20.6 nM.

Turning to `N#CN1CCc2[nH]nc(C(=O)N3CCC(c4cccc(F)c4C(F)(F)F)CC3)c2C1` [Compound 70, 3-(4-(3-Fluoro-2-(trifluoromethyl)phenyl)piperidine-1-carbonyl)-6,7-dihydro-1H-pyrazolo[4,3-c]pyridine-5(4H)-carbonitrile], the IC50 at RBP4-TTR interaction turned out to be 37.5 nM.

As for `O=C(c1n[nH]c2c1CN(CC(F)(F)F)CC2)N1CCC(c2cccc(F)c2C(F)(F)F)CC1` [Compound 71, (4-(3-Fluoro-2-(trifluoromethyl)phenyl)piperidin-1-yl)(5-(2,2,2-trifluoroethyl)-4,5,6,7-tetrahydro-1H-pyrazolo[4,3-c]pyridin-3-yl)methanone], the IC50 is 17.1 nM at RBP4 and 52.6 nM at RBP4-TTR interaction.

In the case of `O=C(c1n[nH]c2c1CN(C1COC1)CC2)N1CCC(c2cccc(F)c2C(F)(F)F)CC1` [Compound 74], the values for the IC50 at RBP4 and at RBP4-TTR interaction were 11.6 nM and 28.3 nM, respectively.

With `CCN1CCc2c(C(=O)N3CCC(c4cccc(F)c4C(F)(F)F)CC3)n[nH]c2C1` [Compound 75, (6-Ethyl-4,5,6,7-tetrahydro-1H-pyrazolo[3,4-c]pyridin-3-yl)(4-(3-fluoro-2-(trifluormethyl)phenyl)piperidin-1-yl)methanone], the IC50 worked out at 6.95 nM at RBP4 and 34 nM at RBP4-TTR interaction.

As for `O=C(c1n[nH]c2c1CCN(CCC(F)(F)F)C2)N1CCC(c2cccc(F)c2C(F)(F)F)CC1` [Compound 76, (4-(3-Fluoro-2-(trifluoromethyl)phenyl)piperidin-1-yl)(6-(3,3,3-trifluoropropyl)-4,5,6,7-tetrahydro-1H-pyrazolo[3,4-c]pyridin-3-yl)methanone], the IC50 on RBP4 was found to be 7.4 nM; on RBP4-TTR interaction, 19.7 nM.

On RBP4, `N#CN1CCc2c(C(=O)N3CCC(c4cccc(F)c4C(F)(F)F)CC3)n[nH]c2C1` [Compound 78, 3-(4-(3-Fluoro-2-(trifluoromethyl)phenyl)piperidine-1-carbonyl)-4,5-dihydro-1H-pyrazolo[3,4-c]pyridine-6(7H)-carbonitrile] returned a 50% inhibitory concentration (IC50) of 9.5 nM.

Take `CCC(=O)N1Cc2[nH]nc(C(=O)N3CCC(c4ccc(F)c(F)c4C(F)(F)F)CC3)c2C1` [Compound 84, 1-(3-(4-(3,4-difluoro-2-(trifluoromethyl)phenyl)piperidine-1-carbonyl)pyrrolo[3,4-c]pyrazol-5(1H,4H,6H)-yl)propan-1-one]: the IC50 at RBP4 worked out at 16.3 nM; at RBP4-TTR interaction it was 14.7 nM.

For the compound `N#CN1CCc2c(C(=O)N3CCC(c4ccc(F)c(F)c4C(F)(F)F)CC3)n[nH]c2C1` [Compound 120, 3-(4-(3,4-Difluoro-2-(trifluoromethyl)phenyl)piperidine-1-carbonyl)-1,4,5,7-tetrahydro-6H-pyrazolo[3,4-c]pyridine-6-carbonitrile], the IC50 on RBP4 stood at 3.45 nM.

`O=C(c1n[nH]c2c1CN(C(=O)N1CCCCC1)C2)N1CCC(c2ccc(F)c(F)c2C(F)(F)F)CC1` [Compound 128, (4-(3,4-Difluoro-2-(trifluoromethyl)phenyl)piperidin-1-yl)(5-(piperidine-1-carbonyl)-1,4,5,6 tetrahydropyrrolo[3,4-c]pyrazol-3-yl)methanone]: the 50% inhibitory concentration (IC50) at RBP4-TTR interaction turned out to be 32.4 nM.
